Consider 15 molecules from PubChem BioAssay AID192 (DTP/NCI, 2004).

Where “and” joins values, the source holds several entries; their conditions need not be identical. Identical values can stand only once. Inconclusive results and toxic doses are left out.

The subject of the assay is BDF1 mice, B16 melanoma ip, median survival T/C. Nature of the assay: NCI In Vivo Anticancer Drug Screen. Data for tumor model B16 Melanoma (intraperitoneal) in B6D2F1 (BDF1) mice. The conditions noted are these: endpoint: median survival time, higher = longer survival. The method in brief: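 Read-out: survival or tumor size, given as treated/control ratio. Controls received vehicle only; animals bore transplantable tumors.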

Setting [1] is: dose: 6.25 mg/kg/injection, schedule: Q01DX009 (ip), vehicle: saline.
Setting [2] is: dose: 12.5 mg/kg/injection, schedule: Q01DX009 (ip), vehicle: saline.
[3] abbreviates: dose: 25.0 mg/kg/injection, schedule: Q01DX009 (ip), vehicle: saline.
The mark [4] stands for this setting: dose: 100.0 mg/kg/injection, schedule: Q01DX009 (ip), vehicle: Klucel (hydroxypropylcellulose) (HPC).
Setting [5] is: dose: 8.0 mg/kg/injection, schedule: Q01DX009 (ip), vehicle: Klucel (hydroxypropylcellulose) (HPC).
Setting [6] is: dose: 25.0 mg/kg/injection, schedule: Q01DX009 (ip), vehicle: saline with Tween-80.
The mark [7] stands for this setting: dose: 50.0 mg/kg/injection, schedule: Q01DX009 (ip), vehicle: saline with Tween-80.
The mark [8] stands for this setting: dose: 100.0 mg/kg/injection, schedule: Q01DX009 (ip), vehicle: saline with Tween-80.
Where [9] appears, read: dose: 200.0 mg/kg/injection, schedule: Q01DX009 (ip), vehicle: saline with Tween-80.
[10] abbreviates: dose: 6.25 mg/kg/injection, schedule: Q01DX009 (ip), vehicle: saline with Tween-80.
[11] abbreviates: dose: 12.5 mg/kg/injection, schedule: Q01DX009 (ip), vehicle: saline with Tween-80.

Take `CNc1nc(N(C)C)nc(N(C)C)n1`: the T/C was 115 % of control under setting [1]; 96 % of control and 100 % of control (dose: 6.25 mg/kg/injection, schedule: Q01DX009 (ip), vehicle: water); 111 % of control under setting [2]; 95 % of control and 102 % of control (dose: 12.5 mg/kg/injection, schedule: Q01DX009 (ip), vehicle: water); 111 % of control under setting [3]; 94 % of control (dose: 25.0 mg/kg/injection, schedule: Q01DX009 (ip), vehicle: water). Besides, the T/C was 116 % of control (dose: 50.0 mg/kg/injection, schedule: Q01DX009 (ip), vehicle: saline); 100 % of control and 118 % of control (dose: 50.0 mg/kg/injection, schedule: Q01DX009 (ip), vehicle: water); 116 % of control (dose: 100.0 mg/kg/injection, schedule: Q01DX009 (ip), vehicle: saline); 100 % of control and 105 % of control (dose: 100.0 mg/kg/injection, schedule: Q01DX009 (ip), vehicle: water).
In the case of `O=C1CC(NC(=O)OCc2ccccc2)C(=O)O1` (stereo not given), the T/C by setting is: (dose: 100.0 mg/kg/injection, schedule: Q01DX009 (ip), vehicle: alcohol) 111 % of control; (dose: 200.0 mg/kg/injection, schedule: Q01DX009 (ip), vehicle: alcohol) 94 % of control.
Regarding `COc1ccc(C2CCc3cc4c(cc3/C2=N/OC(C)=O)OCO4)cc1OC` (stereo not given), the T/C under setting [4] was 109 % of control; the T/C (dose: 200.0 mg/kg/injection, schedule: Q01DX009 (ip), vehicle: Klucel (hydroxypropylcellulose) (HPC)) was 110 % of control; the T/C (dose: 400.0 mg/kg/injection, schedule: Q01DX009 (ip), vehicle: Klucel (hydroxypropylcellulose) (HPC)) was 105 % of control.
Take `C=C(CCCCC)C(=O)/C=C/c1ccc(Cl)cc1`: the T/C is 94 % of control (dose: 75.0 mg/kg/injection, schedule: Q04DX003 (ip), vehicle: Klucel (hydroxypropylcellulose) (HPC)) and 94 % of control (dose: 150.0 mg/kg/injection, schedule: Q04DX003 (ip), vehicle: Klucel (hydroxypropylcellulose) (HPC)).
With `COc1cc([C@@H]2c3cc4c(cc3[C@@H](OC3OC5COC(C)OC5C(O)C3O)[C@H]3COC(=O)[C@H]23)OCO4)cc(OC)c1O` (stereo not given in full), the T/C (dose: 1.73 mg/kg/injection, schedule: Q01DX009 (ip), vehicle: clinical formulation) was 206 % of control; the T/C (dose: 2.0 mg/kg/injection, schedule: Q01DX009 (ip), vehicle: Klucel (hydroxypropylcellulose) (HPC)) was 150 % of control; the T/C (dose: 2.88 mg/kg/injection, schedule: Q01DX009 (ip), vehicle: clinical formulation) is 240 % of control; the T/C (dose: 4.0 mg/kg/injection, schedule: Q01DX009 (ip), vehicle: Klucel (hydroxypropylcellulose) (HPC)) was 111 % of control; the T/C (dose: 4.8 mg/kg/injection, schedule: Q01DX009 (ip), vehicle: clinical formulation) was 240 % of control; the T/C (dose: 5.0 mg/kg/injection, schedule: Q01DX009 (ip), vehicle: saline) was 252 % of control. For the same molecule, the T/C (dose: 5.0 mg/kg/injection, schedule: Q04DX003 (ip), vehicle: suspension in saline) was 202 % of control; the T/C under setting [5] is 276 % of control; the T/C (dose: 8.0 mg/kg/injection, schedule: Q01DX009 (ip), vehicle: clinical formulation) was 259 % of control; the T/C (dose: 8.0 mg/kg/injection, schedule: Q04DX003 (ip), vehicle: suspension in saline) is 180 % of control; the T/C (dose: 10.0 mg/kg/injection, schedule: Q01DX009 (ip), vehicle: saline) is 285 % of control; the T/C (dose: 10.0 mg/kg/injection, schedule: Q04DX003 (ip), vehicle: suspension in saline) is 208 % of control. The T/C is 53 % of control (dose: 13.3 mg/kg/injection, schedule: Q01DX009 (ip), vehicle: clinical formulation); 207 % of control (dose: 16.0 mg/kg/injection, schedule: Q04DX003 (ip), vehicle: suspension in saline); 236 % of control (dose: 20.0 mg/kg/injection, schedule: Q04DX003 (ip), vehicle: suspension in saline); 85 % of control (dose: 32.0 mg/kg/injection, schedule: Q04DX003 (ip), vehicle: suspension in saline); 241 % of control (dose: 40.0 mg/kg/injection, schedule: Q04DX003 (ip), vehicle: suspension in saline); 63 % of control (dose: 64.0 mg/kg/injection, schedule: Q04DX003 (ip), vehicle: suspension in saline).
On to `COc1cccc(O)c1`, for which the T/C reads like this: under setting [6], 97 % of control; under setting [7], 96 % of control; under setting [8], 91 % of control; under setting [9], 86 % of control.
On to `CC(=O)n1cc(F)c(=O)[nH]c1=O`, for which the T/C (dose: 5.3 mg/kg/injection, schedule: Q01DX009 (ip), vehicle: Klucel (hydroxypropylcellulose) (HPC)) is 91 % of control; the T/C under setting [5] is 91 % of control; the T/C (dose: 12.0 mg/kg/injection, schedule: Q01DX009 (ip), vehicle: Klucel (hydroxypropylcellulose) (HPC)) is 104 % of control; the T/C (dose: 18.0 mg/kg/injection, schedule: Q01DX009 (ip), vehicle: Klucel (hydroxypropylcellulose) (HPC)) was 120 % of control; the T/C (dose: 27.0 mg/kg/injection, schedule: Q01DX009 (ip), vehicle: Klucel (hydroxypropylcellulose) (HPC)) was 114 % of control.
As to `COC(=O)C1C(O)C(C)C(O)C(C)C=C(C)C2=C3C(=C(C)C(=O)c4c(O)c(c(C)c(OC(C)=O)c43)NC(=O)C(C)=C/C=C\C(C)C(O)C(C)C1O)OCO2` (stereo not given), the T/C is 97 % of control (dose: 6.25 mg/kg/injection, schedule: Q01DX009 (ip), vehicle: Klucel (hydroxypropylcellulose) (HPC)); 94 % of control (dose: 12.5 mg/kg/injection, schedule: Q01DX009 (ip), vehicle: Klucel (hydroxypropylcellulose) (HPC)); 88 % of control (dose: 25.0 mg/kg/injection, schedule: Q01DX009 (ip), vehicle: Klucel (hydroxypropylcellulose) (HPC)); 112 % of control (dose: 25.0 mg/kg/injection, schedule: Q01DX009 (ip), vehicle: carboxymethylcellulose (CMC)); 112 % of control (dose: 50.0 mg/kg/injection, schedule: Q01DX009 (ip), vehicle: carboxymethylcellulose (CMC)); 89 % of control under setting [4].
Consider `Cc1cccc(C(=O)CC(O)(C(F)(F)F)C(F)(F)F)n1`, for which the T/C is, setting by setting: (dose: 100.0 mg/kg/injection, schedule: Q04DX003 (ip), vehicle: saline with Tween-80) 110 % of control; (dose: 200.0 mg/kg/injection, schedule: Q04DX003 (ip), vehicle: saline with Tween-80) 100 % of control; (dose: 400.0 mg/kg/injection, schedule: Q04DX003 (ip), vehicle: saline with Tween-80) 100 % of control.
Regarding `CC(O)c1ccc[n+](CCc2cn(C)c3ccccc23)c1` (stereo not given), the T/C reads like this: under setting [1], 107 % of control; under setting [2], 113 % of control; under setting [3], 104 % of control.
As for `O=C(Nc1cc(Cl)ccc1Cl)c1ccc(Cl)cc1Cl`, the T/C under setting [10] is 97 % of control; the T/C (dose: 6.25 mg/kg/injection, schedule: Q04DX003 (ip), vehicle: saline with Tween-80) was 92 % of control; the T/C under setting [11] is 93 % of control; the T/C (dose: 12.5 mg/kg/injection, schedule: Q04DX003 (ip), vehicle: saline with Tween-80) was 96 % of control; the T/C under setting [6] was 100 % of control; the T/C (dose: 25.0 mg/kg/injection, schedule: Q04DX003 (ip), vehicle: saline with Tween-80) is 88 % of control.
Regarding `CN1C2CCC1CNC2`, the T/C is 105 % of control (dose: 100.0 mg/kg/injection, schedule: Q04DX003 (ip), vehicle: saline); 105 % of control (dose: 200.0 mg/kg/injection, schedule: Q04DX003 (ip), vehicle: saline); 100 % of control (dose: 400.0 mg/kg/injection, schedule: Q04DX003 (ip), vehicle: saline).
As for `CCC/C=C/C=C/C1CC(O)C(O)C(=O)C1C=O` (stereo not given), the T/C is 105 % of control (dose: 1.6 mg/kg/injection, schedule: Q01DX009 (ip), vehicle: saline with Tween-80); 104 % of control (dose: 3.12 mg/kg/injection, schedule: Q01DX009 (ip), vehicle: saline with Tween-80); 98 % of control under setting [10]; 98 % of control and 100 % of control under setting [11].
In the case of `Nc1cc(Cl)cc(Cl)c1C(=O)O`, the T/C by setting is: (dose: 50.0 mg/kg/injection, schedule: Q04DX003 (ip), vehicle: other) 102 % of control; (dose: 100.0 mg/kg/injection, schedule: Q04DX003 (ip), vehicle: other) 100 % of control; (dose: 200.0 mg/kg/injection, schedule: Q04DX003 (ip), vehicle: other) 102 % of control.
Take `Oc1ccc(I)c2cccnc12`: the T/C by setting is: under setting [7], 97 % of control; under setting [8], 100 % of control; under setting [9], 97 % of control.
